Measured values as given in ChEMBL document CHEMBL3745645, “Synthesis, in vitro antitumor activity, dihydrofolate reductase inhibition, DNA intercalation and structure-activity relationship studies of 1,3,5-triazine analogues” (Bioorg Med Chem Lett, 2016).
Calls of active or inactive are those of the source. The rule behind the calls is not given here.

Key:
CCRF-CEM = experiment: Cytotoxicity against human CCRF-CEM cells at 10 uM after 48 hrs by SRB assay; type: functional; conditions: read-out: GI
[1] = Cytotoxicity against human UO31 cells at 10 uM after 48 hrs by SRB assay; type: functional; conditions: UO-31, 48 h, read-out: GI
[2] = Cytotoxicity against human SKOV3 cells at 10 uM after 48 hrs by SRB assay; type: functional; conditions: SK-OV-3, 48 h, read-out: GI
Malme-3M = experiment: Cytotoxicity against human MALME-3M cells at 10 uM after 48 hrs by SRB assay; type: functional
HT-29 = experiment: Cytotoxicity against human HT-29 cells at 10 uM after 48 hrs by SRB assay; type: functional
Dihydrofolate reductase = molecular target: T1, Dihydrofolate reductase (Homo sapiens, UniProt P00374); experiment: Inhibition of human recombinant DHFR expressed in Escherichia coli by spectrophotometric analysis
T1 sequence (P00374 whole entry): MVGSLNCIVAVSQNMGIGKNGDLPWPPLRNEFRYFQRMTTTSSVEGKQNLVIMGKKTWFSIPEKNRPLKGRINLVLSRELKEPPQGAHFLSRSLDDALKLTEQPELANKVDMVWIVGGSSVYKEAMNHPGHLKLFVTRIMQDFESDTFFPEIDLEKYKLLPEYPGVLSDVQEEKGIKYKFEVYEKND

[3] = Cytotoxicity against human Caki1 cells at 10 uM after 48 hrs by SRB assay; type: functional; conditions: CAKI-1, 48 h, read-out: GI
[4] = Cytotoxicity against human RPMI8226 cells after 48 hrs by SRB assay; type: functional; conditions: RPMI-8226, 48 h, read-out: LC50 (the source's name)
NCI-H322M = experiment: Cytotoxicity against human NCI-H322M cells at 10 uM after 48 hrs by SRB assay; type: functional; conditions: read-out: GI
[5] = Cytotoxicity against human HL-60(TB) cells after 48 hrs by SRB assay; type: functional; conditions: HL-60, 48 h, read-out: LC50 (the source's name)
[6] = Cytotoxicity against human OVCAR3 cells at 10 uM after 48 hrs by SRB assay; type: functional; conditions: OVCAR-3, 48 h, read-out: GI
[7] = Cytotoxicity against human COLO205 cells after 48 hrs by SRB assay; type: functional; conditions: COLO 205, 48 h, pooled result: one value given for 7 cell lines, strains, targets or settings
MDA-MB-468 = experiment: Cytotoxicity against human MDA-MB-468 cells at 10 uM after 48 hrs by SRB assay; type: functional; conditions: MDA-MB-468, 48 h, read-out: GI
[8] = Cytotoxicity against human SF539 cells at 10 uM after 48 hrs by SRB assay; type: functional; conditions: SF-539, 48 h, read-out: GI
[9] = Cytotoxicity against human DU145 cells at 10 uM after 48 hrs by SRB assay; type: functional; conditions: DU-145, 48 h, read-out: GI
[10] = Cytotoxicity against human MOLT4 cells at 10 uM after 48 hrs by SRB assay; type: functional; conditions: MOLT-4, 48 h, read-out: GI
SN12C = experiment: Cytotoxicity against human SN12C cells at 10 uM after 48 hrs by SRB assay; type: functional; conditions: read-out: GI
[11] = Cytotoxicity against human HCT116 cells at 10 uM after 48 hrs by SRB assay; type: functional; conditions: HCT-116, 48 h, read-out: GI
MDA-MB-231 = experiment: Cytotoxicity against human MDA-MB-231 cells at 10 uM after 48 hrs by SRB assay; type: functional; conditions: MDA-MB-231, 48 h, read-out: GI
[12] = Cytotoxicity against human SNB19 cells at 10 uM after 48 hrs by SRB assay; type: functional; conditions: SNB-19, 48 h, read-out: GI
SK-MEL-5 = experiment: Cytotoxicity against human SK-MEL-5 cells at 10 uM after 48 hrs by SRB assay; type: functional; conditions: SK-MEL-5, 48 h, read-out: GI
786-0 = experiment: Cytotoxicity against human 786-0 cells at 10 uM after 48 hrs by SRB assay; type: functional; conditions: 786-0, 48 h, read-out: GI
[13] = Cytotoxicity against human SNB75 cells at 10 uM after 48 hrs by SRB assay; type: functional; conditions: SNB-75, 48 h, read-out: GI
NCI-H522 = experiment: Cytotoxicity against human NCI-H522 cells at 10 uM after 48 hrs by SRB assay; type: functional; conditions: NCI-H522, 48 h, read-out: GI
[14] = Cytotoxicity against human HOP62 cells at 10 uM after 48 hrs by SRB assay; type: functional; conditions: HOP-62, 48 h, read-out: GI
[15] = Cytotoxicity against human RXF393 cells at 10 uM after 48 hrs by SRB assay; type: functional; conditions: RXF 393, 48 h, read-out: GI
NCI-H460 = experiment: Cytotoxicity against human NCI-H460 cells at 10 uM after 48 hrs by SRB assay; type: functional; conditions: NCI-H460, 48 h, read-out: GI
[16] = Cytotoxicity against human IGROV1 cells at 10 uM after 48 hrs by SRB assay; type: functional; conditions: IGROV-1, 48 h, read-out: GI
SR [17] = experiment: Cytotoxicity against human SR cells after 48 hrs by SRB assay; type: functional
NCI-H226 = experiment: Cytotoxicity against human NCI-H226 cells at 10 uM after 48 hrs by SRB assay; type: functional; conditions: NCI-H226, 48 h, read-out: GI
U-251 = experiment: Cytotoxicity against human U251 cells at 10 uM after 48 hrs by SRB assay; type: functional; conditions: U-251, 48 h, read-out: GI
[18] = Cytotoxicity against human OVCAR8 cells at 10 uM after 48 hrs by SRB assay; type: functional; conditions: OVCAR-8, 48 h, read-out: GI
MCF7 = experiment: Cytotoxicity against human MCF7 cells at 10 uM after 48 hrs by SRB assay; type: functional; conditions: MCF7, 48 h, read-out: GI
SK-MEL-28 = experiment: Cytotoxicity against human SK-MEL-28 cells at 10 uM after 48 hrs by SRB assay; type: functional
T47D = experiment: Cytotoxicity against human T47D cells at 10 uM after 48 hrs by SRB assay; type: functional; conditions: read-out: GI
A498 = experiment: Cytotoxicity against human A498 cells at 10 uM after 48 hrs by SRB assay; type: functional
Calf thymus DNA = experiment: Binding affinity to calf thymus DNA by fluorescence spectrophotometric analysis; type: nucleic-acid assay; conditions: Bos taurus
KM12 = experiment: Cytotoxicity against human KM12 cells at 10 uM after 48 hrs by SRB assay; type: functional; conditions: KM12, 48 h, read-out: GI
[19] = Cytotoxicity against human IGROV1 cells after 48 hrs by SRB assay; type: functional; conditions: IGROV-1, 48 h, pooled result: one value given for 7 cell lines, strains, targets or settings
[20] = Cytotoxicity against human MOLT4 cells after 48 hrs by SRB assay; type: functional; conditions: MOLT-4, 48 h, read-out: LC50 (the source's name)
SR [21] = experiment: Cytotoxicity against human SR cells at 10 uM after 48 hrs by SRB assay; type: functional; conditions: read-out: GI
[22] = Cytotoxicity against human SF268 cells at 10 uM after 48 hrs by SRB assay; type: functional; conditions: SF-268, 48 h, read-out: GI

For `Cc1nc2ccc(Nc3nc(NCCN4CCOCC4)nc(Nc4ccc(F)cc4)n3)cc2n1Cc1ccccc1`, the inhibition of growth at 10 µM (CCRF-CEM) was 70.5%, the inhibition of growth at 10 µM [1] was 62.7% and the inhibition of growth at 10 µM [2] was 21%. The “growth inhibition (GI)” value (Malme-3M) was “Active”, the “growth inhibition (GI)” value (HT-29) was “Active” and the IC50 (Dihydrofolate reductase) was 0.002 µM. The inhibition of growth at 10 µM [3] was 44.4%, the CC50 [4] was 55 µM and the inhibition of growth at 10 µM (NCI-H322M) was 35.9%. It also gave a CC50 [5] of 55 µM, an inhibition of growth at 10 µM [6] of 26.3% and a GI50 [7] of 2.6 µM. For the same molecule, the LC50 [7] was 24 µM, the TGI [7] was 8.51 µM and the inhibition of growth at 10 µM (MDA-MB-468) was 86%. The inhibition of growth at 10 µM [8] was 70.2%, the inhibition of growth at 10 µM [9] was 40.8% and the inhibition of growth at 10 µM [10] was 77.3%. It also gave an inhibition of growth at 10 µM (SN12C) of 38.1%, an inhibition of growth at 10 µM [11] of 72.1% and an inhibition of growth at 10 µM (MDA-MB-231) of 66.7%. For the same molecule, the inhibition of growth at 10 µM [12] was 21.3%, the inhibition of growth at 10 µM (SK-MEL-5) was 85.8% and the inhibition of growth at 10 µM (786-0) was 95.8%. It also gave an inhibition of growth at 10 µM [13] of 49.4%, an inhibition of growth at 10 µM (NCI-H522) of 41.3% and an inhibition of growth at 10 µM [14] of 52.2%. The inhibition of growth at 10 µM [15] was 88%, the inhibition of growth at 10 µM (NCI-H460) was 70.6% and the inhibition of growth at 10 µM [16] was 31%. For the same molecule, the LC50 (concentration killing 50% of cells) (SR [17]) was 55 µM, the inhibition of growth at 10 µM (NCI-H226) was 27.9% and the inhibition of growth at 10 µM (U-251) was 71.3%. For the same molecule, the inhibition of growth at 10 µM [18] was 49.9%, the inhibition of growth at 10 µM (MCF7) was 66.4% and the “growth inhibition (GI)” value (SK-MEL-28) was “Active”. For the same molecule, the inhibition of growth at 10 µM (T47D) was 47%, the “growth inhibition (GI)” value (A498) was “Active” and the Ka (Calf thymus DNA) was 8.58 ×10⁴ /M. It also gave an inhibition of growth at 10 µM (KM12) of 56.6%, a GI50 [19] of 4.01 µM and an LC50 (concentration killing 50% of cells) [19] of 62.3 µM. It also gave a TGI [19] of 27.4 µM, a CC50 [20] of 55 µM and an inhibition of growth at 10 µM (SR [21]) of 99.8%. It also gave an inhibition of growth at 10 µM [22] of 37.2%.
